Assay results published in patent US11440923B2, “Substituted macrocyclic indole derivatives” (Bayer Aktiengesellschaft, priority 2017, dated 2022).
Counter-ions that a name gives are not always drawn. Like-named read-outs stand apart in the source and are kept apart here.

What was measured:
SNU-16 cells = assay: Antiproliferation assay SNU-16 (Assay 7); type: cell-based; conditions: Homo sapiens, SNU-16; 72 h, CellTiter-Glo; read-out: Antiproli SNU-16 IC50 median
Protocol: (§1) Assessment of the Anti-Proliferative Effect of Compounds in Different Cell Lines
(§2) The impact of compounds on the proliferation of different cell lines was assessed using the CellTiter-Glo® Luminescent Cell Viability reagent from Promega (G7573).
(§3) In parallel, cells were plated in a reference (day 0) plate for time zero determination. Cells were incubated in a humidified incubator at 37° C. overnight.
(§4) Rim wells were excluded. The cells were incubated for 72 h hours in a humidified incubator at 37° C. The day 0 plate was measured by adding 30 μL/well of CTG solution (CellTiter-Glo® Luminescent Cell Viability reagent, Promega G7573) to time zero wells in the reference plate followed by a 10 minutes incubation and luminescence reading at 0.1 ms. using the PHERAstar FS microplate reader (BMG Labtech).
(§5) After 72 h incubation, the treated plates were measured in the same way as the day 0 plate mentioned above. The Bella DRC Master Sheet was used to calculate IC50s, with CI=day 0 values and C0=DMSO control values.

DMS-114 cells = assay: Antiproliferation assay DMS-114 (Assay 7); type: cell-based; conditions: Homo sapiens; DMS-114 cells, 72 h, CellTiter-Glo; read-out: Antiproli DM-S114 IC50 median
Protocol: as §1, §2, §3, §4, §5

SK-MEL-2 cells = assay: Antiproliferation assay SK-MEL-2 (Assay 7); type: cell-based; conditions: Homo sapiens, SK-MEL-2; 72 h, CellTiter-Glo; read-out: Antiproli SK-MEL-2 IC50 median
Protocol: as §1, §2, §3, §4, §5

SUDHL5 cells [1] = assay: Antiproliferation assay SUDHL5 (Assay 7); type: cell-based
In short: (§6)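 Using a parallel time-zero plate as baseline, the anti-proliferative effect was assessed by CellTiter-Glo after 72 h compound incubation at 37 °C. IC50 was computed from day 0 and DMSO control values.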

SUDHL5 cells [2] = assay: Induction of cytotoxicity in SUDHL5 cells (Assay 6); type: cell-based; conditions: 5 h, CellTiter-Glo, read-out: Cytotox SUDHL5 IC50 (median)
In short: (§7)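 Run alongside apoptosis measurements, this cytotoxicity readout used cells treated with compound for 5 h at 37 °C and quantified ATP-based luminescence with CellTiter-Glo.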

SUDHL10 cells [3] = assay: Induction of caspase-3/7 activity in SUDHL10 cells (Assay 4); type: cell-based
In short: (§8)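 Read-out: Caspase-Glo 3/7 luminescence (1 h, 37 °C) after cells, plated overnight, were treated with compounds for 3 h at 37 °C. Signal corrected for cell-free medium background and expressed relative to DMSO control mean.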

HMC-1-8 cells = assay: Antiproliferation assay HMC-1-8 (Assay 7); type: cell-based
In short: as §6

SNU-389 cells = assay: Antiproliferation assay SNU-389 (Assay 7); type: cell-based; conditions: 72 h, CellTiter-Glo; read-out: Antiproli SNU-389 IC50
Protocol: as §1, §2, §3, §4, §5

PA-1 cells = assay: Antiproliferation assay PA-1 (Assay 7); type: cell-based; conditions: Homo sapiens, PA-1; 72 h, CellTiter-Glo; read-out: Antiproli PA-1 IC50 median
Protocol: as §1, §2, §3, §4, §5

A-431 cells = assay: Antiproliferation assay A-431 (Assay 7); type: cell-based; conditions: Homo sapiens, A-431; 72 h, CellTiter-Glo; read-out: Antiproli A-431 IC50 median
Protocol: as §1, §2, §3, §4, §5

AMO-1 cells = assay: Antiproliferation assay AMO-1 (Assay 7); type: cell-based; conditions: 72 h, CellTiter-Glo, read-out: Antiproli AMO-1 IC50 median
In short: as §6

SUDHL5 cells [4] = assay: Induction of caspase-3/7 activity in SUDHL5 cells (Assay 4); type: cell-based
In short: as §8

SUDHL10 cells [5] = assay: Induction of cytotoxicity in SUDHL10 cells (Assay 6); type: cell-based; conditions: 5 h, CellTiter-Glo, read-out: Cytotox SUDHL10 IC50 (median)
In short: as §7

[6] = target: MCL1 protein / biotinylated BIM BH3 peptide in RKO cells (Homo sapiens (Human), UniProt Q07820); assay: PIxEL: protein-protein interaction in permeabilized cells by ELISA (Assay 5); type: cell-based; conditions: PIxEL IC50 (median)
Sequence of MCL1 protein / biotinylated BIM BH3 peptide in RKO cells (Q07820 whole entry): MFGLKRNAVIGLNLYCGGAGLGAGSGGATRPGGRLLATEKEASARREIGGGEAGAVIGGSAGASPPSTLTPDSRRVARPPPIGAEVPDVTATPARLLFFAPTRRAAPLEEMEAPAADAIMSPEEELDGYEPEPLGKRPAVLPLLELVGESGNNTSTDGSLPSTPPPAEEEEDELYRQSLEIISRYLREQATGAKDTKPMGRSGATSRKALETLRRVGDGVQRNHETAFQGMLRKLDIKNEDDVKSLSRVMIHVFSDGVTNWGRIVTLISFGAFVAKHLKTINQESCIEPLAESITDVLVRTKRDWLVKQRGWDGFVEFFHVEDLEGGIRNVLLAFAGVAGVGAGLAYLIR
Protocol: PIxEL: Protein-Protein Interaction in Permeabilized Cells by ELISA
Most MCL1 protein molecules are localized at the mitochondria outer membrane and sequester pro-apoptotic proteins through binding of their BCL2 homology domain 3 (BH3 domain). MEB buffer (150 mM mannitol, 10 mM HEPES pH 7.5, 50 mM KCl, 20 μM EDTA, 20 μM EGTA, 5 mM potassium succinate, 0.1% protease-free BSA (SIGMA) with low dose digitonin (0.002%) permeabilizes plasma membrane while leaves live mitochondria, where MCL1 maintains its native localization and conformation. Unlike biophysical assays (e.g. TR-FRET) that use truncated recombinant MCL1 protein, this assay uses full length endogenous MCL1 protein at mitochondria outer membrane. It measures the interaction between MCL1 protein and biotinylated BIM BH3 peptide. Compounds can compete with BIM BH3 peptide to bind to MCL1 protein.
On day 1, RKO colon cancer cell line cells were plated at 0.8 million cells/ml, 100 μl/well in 96-well flat bottom TC plates (Corning). MCL1 antibody (Santa Cruz sc-12756) were diluted at 200 fold (final concentration 1 μg/ml) in carbonate buffer (Thermo Fisher Scientific, pH 9.6), and 50 μl of diluted antibody was added to each well of high bind ELISA plates ([…]). Each plate was tapped to make sure liquid covering entire bottom of wells and incubate at 37° C. overnight.
On the second day, MCL1 antibody was washed from ELISA plate. 250 μl Odyssey® Blocking Buffer (PBS) (Li-Cor) was added to each well, incubated at room temperature for at least 1 hour, then washed once with 250 μl 1×PBST. Plates with RKO cells were gently washed once with 100 μl/well PBS, once with 100 μl/well MEB buffer without digitonin, then 100 μl of MEB buffer with 0.002% digitonin was gently added to each well. Compounds were added with HP Tecan compound dispenser in 3-fold dilution series, highest dose 30 μM, 10-dose per compound in quadruplicates. Biotin-BIM peptide (synthesized by 21st Century) was added with HP Tecan compound dispenser at 0.2 μM immediately after the addition of compounds. Plates were rocked for 1 hour at room temperature. Then MEB buffer was aspirated and 50 μl of CHAPS buffer (50 mM Tris-Cl, pH 7.4, 150 mM NaCl, 1% CHAPS, 1 mM EDTA, 1 mM EGTA, cOmplete protease inhibitors (Roche), PhosSTOP (Roche)) was added to each well. Plates were rocked for 1 hour at 4° C., then 45 μl cell lysate from each well were transferred to ELISA plates coated with MCL1 antibody. Plates were incubated overnight in the cold room with rocking.
On the third day, ELISA plates were washed once with 250 μl 1×PBST. Streptavidin-poly-HRP (Thermo Fisher Scientific) was diluted to 20 ng/ml in Odyssey blocking buffer plus 0.05% Triton-100, and 100 μl was added to each well of the ELISA plate. Plates were incubated at room temperature for 1 hour with rocking, then washed with 100 μl 1×PBST for 3 times. Each SuperSignal ELISA Femto Maximum Sensitivity substrate was added to a 50-ml tube and mixed, then 100 μl of mixed substrate was added to each well. Plates were shaken for 1 minute then luminescence was measured by Envision plate reader […]. Signal of each well were normalized by no-compound control and no-cell control. IC50 was calculated using Graphic Pad PRISM software.

MCL-1 = MCL-1 (Homo sapiens (Human), UniProt Q07820, K194A/K197A/R201A); assay: Protein-protein interaction assay MCL-1/Noxa BH3 peptide (MCL-1 assay, TR-FRET); type: binding; conditions: MCL-1 Assay IC50 (median)
Sequence of MCL-1 (Q07820 whole entry, looked up, stated change not applied, the tested form may be a part): as the sequence (Q07820 whole entry) above
Protocol: The dose-dependent inhibition by the compounds described in this invention of the interaction between MCL-1 and the BH3 domain of Noxa (both human) was determined using a steady state binding competition assay with time-resolved fluorescence energy transfer (TR-FRET) readout. For that purpose MCL-1 (amino acids 173-321, N-terminal fused to Maltose Binding Protein (MBP) SEQ ID 1)) and a synthetic Noxa BH3-derived peptide of sequence Biotin-PEG2-PEG2-PAELEVE-Nva-[…]-amide (SEQ ID 2) served as protein receptor and tracer ligand respectively. The MBP-MCL-1 was purchased from Beryllium (Bedford, Mass., USA). The expression and purification of this protein construct has been described elsewhere (DOI:10.1371/journal.pone.0125010). The Noxa BH3-derived peptide can be obtained from e.g. Biosyntan (Berlin, Germany).
For that, 100-fold concentrated DMSO solutions were prepared by serial dilutions (1:3.4) of a 2 mM stock solution in a clear, 384-well microtiter plate (Greiner Bio-One, Frickenhausen, Germany). From there, 50 nl were transferred in a dark test plate (Greiner Bio-One, Frickenhausen, Germany). The assay was initiated by addition of 2 μL of a 2,5-fold concentrated MBP-MCL-1 solution (usually for a 1 nM end concentration in 5 μL reaction volume) in aqueous assay buffer [50 mM Tris/HCl pH 7, 100 mM sodium chloride (NaCl), 50 mM potassium fluoride (KF), 0.005% Tween-20, 2 mM DTT, 0.1% bovine gamma globulin (BGG)] to the compounds in the assay plate. This was followed by a 10-minute incubation step at 22° C. for pre-equilibration of the putative complex between MBP-MCL-1 and the compounds.
The mixture was incubated in the dark for one hour at 22° C. and then overnight at 4° C. The formation of MCL-1/Noxa complexes was determined by measuring the resonance energy transfer of the anti-MBP-Eu-cryptate antibody to the streptavidin-XL665 present in the reaction.
For that purpose, the fluorescence emission at 620 nm and 665 nm after excitation at 330-350 nm was measured in a TR-FRET measuring instrument, for instance a Rubystar or a Pherastar (both from BMG Lab Technologies, Offenburg, Germany) or a Viewlux (Perkin-Elmer). The ratio of the emission at 665 nm and at 622 nm was used as indicator of the amount of MCL-1/NOXA complexes present.
The resulting data (ratio) were normalized, taking 0% inhibition as the mean value of control measurements (usually 32 data points) where all reagents were included. In this case 50 nl DMSO were used instead of compounds. […] IC50 values were determined by regression analysis based on a 4 parameter equation (minimum, maximum, IC50, Hill; Y=Max+(Min−Max)/(1+(X/IC50)^Hill) using the Screener Software (Genedata).

## CCc1c2c(nn1C)C(CCN1CCOCC1)N(C)CCCCn1c(C(=O)O)c(CCCOc3cccc4cc(F)ccc34)c3ccc(Cl)c-2c31 (single isomer, unassigned) [Example 94, 4-chloro-3-ethyl-7-{3-[(6-fluoronaphthalen-1-yl)oxy]propyl}-2,14-dimethyl-15-[2-(morpholin-4-yl)ethyl]-10,11,12,13,14,15-hexahydro-2H-pyrazolo[3′,4′:8,9][1,6]diazacycloundecino[10,11,1-hi]indole-8-carboxylic Acid]
SNU-16 cells
  IC50: 221 nM
DMS-114 cells
  IC50: 133 nM
SK-MEL-2 cells
  IC50: 299 nM
SUDHL5 cells [1]; 72 h, CellTiter-Glo; read-out: Antiproli SUDHL5 IC50 (median)
  IC50: 40 nM
SUDHL5 cells [2]
  IC50: 40 nM
SUDHL10 cells [3]; caspase-3/7 induction, 3 h; read-out: Caspase SUDHL10 EC50 (median)
  EC50: 23 nM
HMC-1-8 cells; 72 h, CellTiter-Glo; read-out: Antiproli HMC-1-8 IC50 median
  IC50: 777 nM
SNU-389 cells
  IC50: 305 nM
PA-1 cells
  IC50: 218 nM
A-431 cells
  IC50: 361 nM
AMO-1 cells
  IC50: 41.3 nM
SUDHL5 cells [4]; caspase-3/7 induction, 3 h; read-out: Caspase SUDHL5 EC50 (median)
  EC50: 36 nM

## Cc1c2c(nn1C)C(CCN1CCOCC1)OCCCCn1c(C(=O)O)c(CCCOc3cccc4ccccc34)c3ccc(F)c-2c31 (single isomer, unassigned; enantiomer 1) [Example 8, 4-fluoro-2,3-dimethyl-15-[2-(morpholin-4-yl)ethyl]-7-{3-[(naphthalen-1-yl)oxy]propyl}-2,10,11,12,13,15-hexahydropyrazolo[4′,3′:9,10][1,6]oxazacycloundecino[8,7,6-hi]indole-8-carboxylic Acid—N-ethylethanamine Salt (Enantiomer 1)]
SUDHL5 cells [1]; read-out: Antiproli SUDHL5 IC50 (median); 72 h, CellTiter-Glo
  IC50: 30 nM
SUDHL5 cells [2]
  IC50: 76 nM
SUDHL10 cells [3]; read-out: Caspase SUDHL10 EC50 (median); caspase-3/7 induction, 3 h
  EC50: 150 nM
SUDHL10 cells [5]
  IC50: 140 nM
SUDHL5 cells [4]; read-out: Caspase SUDHL5 EC50 (median); caspase-3/7 induction, 3 h
  EC50: 64 nM
[6]
  IC50: 617 nM

## CCc1c2c(nn1C)C(CCN1CC(F)C1)OCCCCn1c(C(=O)O)c(CCCOc3cccc4cc(F)ccc34)c3ccc(Cl)c-2c31 (racemic) [Example 108, (rac)-4-chloro-3-ethyl-15-[2-(rac)-(3-fluoroazetidin-1-yl)ethyl]-7-{3-[(6-fluoronaphthalen-1-yl)oxy]propyl}-2-methyl-2,10,11,12,13,15-hexahydropyrazolo[4′,3′:9,10][1,6]oxazacycloundecino[8,7,6-hi]indole-8-carboxylic Acid]
SUDHL5 cells [1]; Homo sapiens, SU-DHL-5, 72 h, 72 h, CellTiter-Glo; read-out: Antiproli SUDHL5 IC50 (median)
  IC50: 70 nM
SUDHL5 cells [2]; Homo sapiens, SU-DHL-5, 5 h
  IC50: 84 nM
SUDHL10 cells [3]; Homo sapiens, SU-DHL10, 3 h, caspase-3/7 induction, 3 h; read-out: Caspase SUDHL10 EC50 (median)
  EC50: 67 nM
HMC-1-8 cells; 72 h, CellTiter-Glo, read-out: Antiproli HMC-1-8 IC50 median
  IC50: 1870 nM
SUDHL10 cells [5]; Homo sapiens, SU-DHL10, 5 h
  IC50: 130 nM
AMO-1 cells; Homo sapiens, AMO1, 72 h
  IC50: 51.8 nM
MCL-1
  IC50: 1.2 nM
SUDHL5 cells [4]; Homo sapiens, SU-DHL-5, 3 h, caspase-3/7 induction, 3 h; read-out: Caspase SUDHL5 EC50 (median)
  EC50: 66 nM
